Experimental data as given in the kinase profiling compilation of Christmann-Franck et al. (2016).

Molecular target: JAK2 JH1 JH2 (human) (UniProt O60674)
Assay: radiometric filter-binding kinase assay, Kinase HotSpot
Settings: compound 0.5 µM; ATP 10 µM

Compound | residual activity
O=c1c2ccccc2[nH]c(=S)n1CCN1CCC(=C(c2ccc(F)cc2)c2ccc(F)cc2)CC1 | 92%
O=C(c1ccccc1)c1ccc(N2CCOCC2)cc1O | 94.1%
c1ccc(-c2cnc(Nc3ccc(OCCN4CCCC4)cc3)s2)cc1 | 92.7%

Molecular target: STK39 (human) (UniProt Q9UEW8)
Assay: as above
Settings: compound 0.5 µM; ATP 10 µM

Compound | residual activity
O=c1c2ccccc2[nH]c(=S)n1CCN1CCC(=C(c2ccc(F)cc2)c2ccc(F)cc2)CC1 | 96.8%
O=C(c1ccccc1)c1ccc(N2CCOCC2)cc1O | 94.8%
c1ccc(-c2cnc(Nc3ccc(OCCN4CCCC4)cc3)s2)cc1 | 75.4%

Molecular target: ROCK2 (human) (UniProt O75116)
Sequence (O75116 whole entry, looked up): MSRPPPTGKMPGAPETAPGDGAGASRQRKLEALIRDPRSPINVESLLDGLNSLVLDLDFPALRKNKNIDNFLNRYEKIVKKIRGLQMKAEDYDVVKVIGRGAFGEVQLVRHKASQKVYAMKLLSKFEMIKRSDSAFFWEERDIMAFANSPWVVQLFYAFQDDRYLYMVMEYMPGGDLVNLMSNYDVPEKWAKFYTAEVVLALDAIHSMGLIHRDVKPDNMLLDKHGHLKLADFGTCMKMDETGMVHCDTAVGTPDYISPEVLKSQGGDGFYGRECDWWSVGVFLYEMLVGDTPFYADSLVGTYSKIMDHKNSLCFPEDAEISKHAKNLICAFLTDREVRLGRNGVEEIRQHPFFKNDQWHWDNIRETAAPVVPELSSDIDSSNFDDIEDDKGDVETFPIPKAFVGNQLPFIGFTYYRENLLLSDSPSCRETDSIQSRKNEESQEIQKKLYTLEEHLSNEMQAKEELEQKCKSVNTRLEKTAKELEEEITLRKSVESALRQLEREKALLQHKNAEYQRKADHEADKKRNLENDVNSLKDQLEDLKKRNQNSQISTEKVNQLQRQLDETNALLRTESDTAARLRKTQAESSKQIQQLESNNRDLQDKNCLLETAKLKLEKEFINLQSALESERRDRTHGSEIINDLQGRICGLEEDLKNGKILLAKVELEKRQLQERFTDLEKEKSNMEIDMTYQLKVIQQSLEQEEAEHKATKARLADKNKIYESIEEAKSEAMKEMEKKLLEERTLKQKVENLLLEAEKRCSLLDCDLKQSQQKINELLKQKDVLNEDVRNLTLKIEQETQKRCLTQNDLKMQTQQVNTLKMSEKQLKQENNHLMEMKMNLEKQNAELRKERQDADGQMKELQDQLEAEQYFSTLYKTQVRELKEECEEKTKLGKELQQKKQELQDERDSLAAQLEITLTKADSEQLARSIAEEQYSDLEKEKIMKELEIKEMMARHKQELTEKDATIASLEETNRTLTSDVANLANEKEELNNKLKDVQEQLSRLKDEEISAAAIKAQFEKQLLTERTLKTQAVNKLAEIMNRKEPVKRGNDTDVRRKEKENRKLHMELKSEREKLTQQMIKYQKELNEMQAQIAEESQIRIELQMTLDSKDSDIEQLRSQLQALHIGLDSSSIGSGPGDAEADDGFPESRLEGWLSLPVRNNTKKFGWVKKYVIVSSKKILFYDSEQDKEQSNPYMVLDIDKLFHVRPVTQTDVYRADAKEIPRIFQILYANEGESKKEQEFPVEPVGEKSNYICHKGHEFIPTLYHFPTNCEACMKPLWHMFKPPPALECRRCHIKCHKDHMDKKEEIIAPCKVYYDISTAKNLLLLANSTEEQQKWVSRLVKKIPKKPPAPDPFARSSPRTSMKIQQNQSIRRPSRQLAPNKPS
Assay: as above
Settings: compound 0.5 µM; ATP 10 µM

Compound | residual activity
O=c1c2ccccc2[nH]c(=S)n1CCN1CCC(=C(c2ccc(F)cc2)c2ccc(F)cc2)CC1 | 98.8%
O=C(c1ccccc1)c1ccc(N2CCOCC2)cc1O | 96%
c1ccc(-c2cnc(Nc3ccc(OCCN4CCCC4)cc3)s2)cc1 | 91.7%

Molecular target: PDPK1 (human) (UniProt O15530)
Assay: as above
Settings: compound 0.5 µM; ATP 10 µM

Compound | residual activity
O=c1c2ccccc2[nH]c(=S)n1CCN1CCC(=C(c2ccc(F)cc2)c2ccc(F)cc2)CC1 | 99.2%
O=C(c1ccccc1)c1ccc(N2CCOCC2)cc1O | 101%
c1ccc(-c2cnc(Nc3ccc(OCCN4CCCC4)cc3)s2)cc1 | 84.9%

Molecular target: MAP2K1 (human) (UniProt Q02750)
Assay: as above
Settings: compound 0.5 µM; ATP 10 µM

Compound | residual activity
O=c1c2ccccc2[nH]c(=S)n1CCN1CCC(=C(c2ccc(F)cc2)c2ccc(F)cc2)CC1 | 97.5%
O=C(c1ccccc1)c1ccc(N2CCOCC2)cc1O | 98.1%
c1ccc(-c2cnc(Nc3ccc(OCCN4CCCC4)cc3)s2)cc1 | 96.9%

Molecular target: GRK4 (human) (UniProt P32298)
Assay: as above
Settings: compound 0.5 µM; ATP 10 µM

Compound | residual activity
O=c1c2ccccc2[nH]c(=S)n1CCN1CCC(=C(c2ccc(F)cc2)c2ccc(F)cc2)CC1 | 107%
O=C(c1ccccc1)c1ccc(N2CCOCC2)cc1O | 104%
c1ccc(-c2cnc(Nc3ccc(OCCN4CCCC4)cc3)s2)cc1 | 98.3%

Molecular target: PRKX (human) (UniProt P51817)
Assay: as above
Settings: compound 0.5 µM; ATP 10 µM

Compound | residual activity
O=c1c2ccccc2[nH]c(=S)n1CCN1CCC(=C(c2ccc(F)cc2)c2ccc(F)cc2)CC1 | 106%
O=C(c1ccccc1)c1ccc(N2CCOCC2)cc1O | 109%
c1ccc(-c2cnc(Nc3ccc(OCCN4CCCC4)cc3)s2)cc1 | 101%

Molecular target: FGFR1 (human) (UniProt P11362)
Sequence (P11362 whole entry, looked up): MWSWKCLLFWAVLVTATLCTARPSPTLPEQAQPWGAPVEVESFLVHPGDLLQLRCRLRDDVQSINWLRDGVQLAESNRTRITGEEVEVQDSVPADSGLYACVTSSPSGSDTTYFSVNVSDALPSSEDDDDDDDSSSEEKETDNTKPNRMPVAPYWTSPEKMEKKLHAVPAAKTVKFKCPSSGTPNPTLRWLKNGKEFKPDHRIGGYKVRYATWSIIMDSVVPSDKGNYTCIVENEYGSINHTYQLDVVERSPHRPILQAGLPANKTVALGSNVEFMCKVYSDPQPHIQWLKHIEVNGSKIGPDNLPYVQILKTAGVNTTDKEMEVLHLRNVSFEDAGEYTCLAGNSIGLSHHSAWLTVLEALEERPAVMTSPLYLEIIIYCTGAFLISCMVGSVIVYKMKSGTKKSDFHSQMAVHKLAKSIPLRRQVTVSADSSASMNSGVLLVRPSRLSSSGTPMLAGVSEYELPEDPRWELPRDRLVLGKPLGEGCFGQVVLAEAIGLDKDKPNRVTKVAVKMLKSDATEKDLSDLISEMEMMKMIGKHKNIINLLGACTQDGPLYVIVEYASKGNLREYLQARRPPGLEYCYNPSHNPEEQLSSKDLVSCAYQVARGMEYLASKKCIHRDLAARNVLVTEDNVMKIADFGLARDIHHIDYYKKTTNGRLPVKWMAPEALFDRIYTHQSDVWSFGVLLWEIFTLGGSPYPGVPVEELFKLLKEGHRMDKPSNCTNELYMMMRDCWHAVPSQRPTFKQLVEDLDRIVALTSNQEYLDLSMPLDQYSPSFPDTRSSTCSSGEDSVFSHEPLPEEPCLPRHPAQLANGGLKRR
Assay: as above
Settings: compound 0.5 µM; ATP 10 µM

Compound | residual activity
O=c1c2ccccc2[nH]c(=S)n1CCN1CCC(=C(c2ccc(F)cc2)c2ccc(F)cc2)CC1 | 105%
O=C(c1ccccc1)c1ccc(N2CCOCC2)cc1O | 95.9%
c1ccc(-c2cnc(Nc3ccc(OCCN4CCCC4)cc3)s2)cc1 | 75.4%

Molecular target: PAK4 (human) (UniProt O96013)
Sequence (O96013 whole entry, looked up): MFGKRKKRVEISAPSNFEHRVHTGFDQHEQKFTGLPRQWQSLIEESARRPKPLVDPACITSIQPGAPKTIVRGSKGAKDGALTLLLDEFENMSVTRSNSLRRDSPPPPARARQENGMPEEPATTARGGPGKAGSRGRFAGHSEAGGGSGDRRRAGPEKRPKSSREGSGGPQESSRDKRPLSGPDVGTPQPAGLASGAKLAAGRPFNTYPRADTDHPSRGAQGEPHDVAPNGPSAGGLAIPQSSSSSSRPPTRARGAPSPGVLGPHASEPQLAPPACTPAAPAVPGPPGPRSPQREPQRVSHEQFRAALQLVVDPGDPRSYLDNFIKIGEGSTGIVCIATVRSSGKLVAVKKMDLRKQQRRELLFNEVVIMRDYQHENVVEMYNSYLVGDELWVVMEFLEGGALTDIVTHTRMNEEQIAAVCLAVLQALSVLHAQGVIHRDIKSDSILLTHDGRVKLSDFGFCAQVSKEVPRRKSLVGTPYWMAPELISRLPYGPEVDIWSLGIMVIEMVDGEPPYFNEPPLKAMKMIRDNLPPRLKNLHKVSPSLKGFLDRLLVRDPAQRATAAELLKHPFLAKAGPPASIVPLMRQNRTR
Assay: as above
Settings: compound 0.5 µM; ATP 10 µM

Compound | residual activity
O=c1c2ccccc2[nH]c(=S)n1CCN1CCC(=C(c2ccc(F)cc2)c2ccc(F)cc2)CC1 | 101%
O=C(c1ccccc1)c1ccc(N2CCOCC2)cc1O | 104%
c1ccc(-c2cnc(Nc3ccc(OCCN4CCCC4)cc3)s2)cc1 | 106%

Molecular target: SRMS (human) (UniProt Q9H3Y6)
Assay: as above
Settings: compound 0.5 µM; ATP 10 µM

Compound | residual activity
O=c1c2ccccc2[nH]c(=S)n1CCN1CCC(=C(c2ccc(F)cc2)c2ccc(F)cc2)CC1 | 96.7%
O=C(c1ccccc1)c1ccc(N2CCOCC2)cc1O | 93.9%
c1ccc(-c2cnc(Nc3ccc(OCCN4CCCC4)cc3)s2)cc1 | 96.5%

Molecular target: CDK1 CCNB1 (human) (UniProt P06493+P14635)
Sequence (P06493 whole entry, looked up): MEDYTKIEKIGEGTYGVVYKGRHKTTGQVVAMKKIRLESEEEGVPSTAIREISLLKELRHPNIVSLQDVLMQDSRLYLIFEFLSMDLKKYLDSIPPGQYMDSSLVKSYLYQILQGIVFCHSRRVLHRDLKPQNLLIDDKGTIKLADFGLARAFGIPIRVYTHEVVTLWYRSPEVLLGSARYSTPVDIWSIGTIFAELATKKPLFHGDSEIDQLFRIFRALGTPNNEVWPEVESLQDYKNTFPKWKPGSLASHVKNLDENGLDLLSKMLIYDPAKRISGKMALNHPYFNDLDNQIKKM
Sequence (P14635 whole entry, looked up): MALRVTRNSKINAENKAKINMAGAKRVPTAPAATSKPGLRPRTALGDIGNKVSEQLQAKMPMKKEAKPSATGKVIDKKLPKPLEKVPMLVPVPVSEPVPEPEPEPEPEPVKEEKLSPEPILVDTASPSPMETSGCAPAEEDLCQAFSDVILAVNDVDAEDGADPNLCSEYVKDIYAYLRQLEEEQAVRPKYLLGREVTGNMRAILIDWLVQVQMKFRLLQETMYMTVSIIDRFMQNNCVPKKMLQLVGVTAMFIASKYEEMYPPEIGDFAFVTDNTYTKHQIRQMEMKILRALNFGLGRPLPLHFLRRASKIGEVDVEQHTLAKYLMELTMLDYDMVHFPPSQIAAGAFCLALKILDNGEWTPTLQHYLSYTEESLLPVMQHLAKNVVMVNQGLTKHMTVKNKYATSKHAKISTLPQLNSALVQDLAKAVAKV
Assay: as above
Settings: compound 0.5 µM; ATP 10 µM

Compound | residual activity
O=c1c2ccccc2[nH]c(=S)n1CCN1CCC(=C(c2ccc(F)cc2)c2ccc(F)cc2)CC1 | 83%
O=C(c1ccccc1)c1ccc(N2CCOCC2)cc1O | 92.3%
c1ccc(-c2cnc(Nc3ccc(OCCN4CCCC4)cc3)s2)cc1 | 85.1%

Molecular target: FRK (human) (UniProt P42685)
Assay: as above
Settings: compound 0.5 µM; ATP 10 µM

Compound | residual activity
O=c1c2ccccc2[nH]c(=S)n1CCN1CCC(=C(c2ccc(F)cc2)c2ccc(F)cc2)CC1 | 100%
O=C(c1ccccc1)c1ccc(N2CCOCC2)cc1O | 102%
c1ccc(-c2cnc(Nc3ccc(OCCN4CCCC4)cc3)s2)cc1 | 83%

Molecular target: EPHA4 (human) (UniProt P54764)
Assay: as above
Settings: compound 0.5 µM; ATP 10 µM

Compound | residual activity
O=c1c2ccccc2[nH]c(=S)n1CCN1CCC(=C(c2ccc(F)cc2)c2ccc(F)cc2)CC1 | 99.4%
O=C(c1ccccc1)c1ccc(N2CCOCC2)cc1O | 103%
c1ccc(-c2cnc(Nc3ccc(OCCN4CCCC4)cc3)s2)cc1 | 101%

Molecular target: CAMK1 (human) (UniProt Q14012)
Sequence (Q14012 whole entry, looked up): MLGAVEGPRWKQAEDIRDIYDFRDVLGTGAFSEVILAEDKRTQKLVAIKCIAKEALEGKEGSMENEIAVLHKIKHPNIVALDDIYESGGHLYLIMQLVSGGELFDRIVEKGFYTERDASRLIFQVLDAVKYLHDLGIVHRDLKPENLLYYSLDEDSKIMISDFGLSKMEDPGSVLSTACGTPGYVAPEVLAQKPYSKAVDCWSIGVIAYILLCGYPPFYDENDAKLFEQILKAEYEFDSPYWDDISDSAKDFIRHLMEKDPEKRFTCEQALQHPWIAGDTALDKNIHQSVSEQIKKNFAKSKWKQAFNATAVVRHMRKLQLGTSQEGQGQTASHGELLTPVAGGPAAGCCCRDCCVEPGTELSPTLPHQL
Assay: as above
Settings: compound 0.5 µM; ATP 10 µM

Compound | residual activity
O=c1c2ccccc2[nH]c(=S)n1CCN1CCC(=C(c2ccc(F)cc2)c2ccc(F)cc2)CC1 | 98.6%
O=C(c1ccccc1)c1ccc(N2CCOCC2)cc1O | 97.5%
c1ccc(-c2cnc(Nc3ccc(OCCN4CCCC4)cc3)s2)cc1 | 86.3%

Molecular target: HIPK4 (human) (UniProt Q8NE63)
Assay: as above
Settings: compound 0.5 µM; ATP 10 µM

Compound | residual activity
O=c1c2ccccc2[nH]c(=S)n1CCN1CCC(=C(c2ccc(F)cc2)c2ccc(F)cc2)CC1 | 98.4%
O=C(c1ccccc1)c1ccc(N2CCOCC2)cc1O | 99.5%
c1ccc(-c2cnc(Nc3ccc(OCCN4CCCC4)cc3)s2)cc1 | 98.5%

Molecular target: PRKCZ (human) (UniProt Q05513)
Sequence (Q05513 whole entry, looked up): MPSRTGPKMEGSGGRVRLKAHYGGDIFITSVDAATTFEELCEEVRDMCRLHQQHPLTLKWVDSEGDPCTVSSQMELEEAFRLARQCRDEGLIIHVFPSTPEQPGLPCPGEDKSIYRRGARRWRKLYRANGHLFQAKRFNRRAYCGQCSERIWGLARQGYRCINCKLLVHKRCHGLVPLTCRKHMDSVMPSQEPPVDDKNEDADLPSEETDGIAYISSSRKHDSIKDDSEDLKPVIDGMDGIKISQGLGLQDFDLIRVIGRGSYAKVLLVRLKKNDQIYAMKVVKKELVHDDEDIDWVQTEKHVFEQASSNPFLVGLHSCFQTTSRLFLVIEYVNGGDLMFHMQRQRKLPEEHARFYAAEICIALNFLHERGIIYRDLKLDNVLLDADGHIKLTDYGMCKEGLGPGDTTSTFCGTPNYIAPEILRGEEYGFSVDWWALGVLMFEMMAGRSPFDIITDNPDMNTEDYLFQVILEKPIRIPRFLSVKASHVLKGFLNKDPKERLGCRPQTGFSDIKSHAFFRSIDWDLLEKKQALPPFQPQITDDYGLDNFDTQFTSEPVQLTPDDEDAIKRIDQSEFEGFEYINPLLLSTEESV
Assay: as above
Settings: compound 0.5 µM; ATP 10 µM

Compound | residual activity
O=c1c2ccccc2[nH]c(=S)n1CCN1CCC(=C(c2ccc(F)cc2)c2ccc(F)cc2)CC1 | 102%
O=C(c1ccccc1)c1ccc(N2CCOCC2)cc1O | 85%
c1ccc(-c2cnc(Nc3ccc(OCCN4CCCC4)cc3)s2)cc1 | 96.3%

Molecular target: ACVR1B (human) (UniProt P36896)
Sequence (P36896 whole entry, looked up): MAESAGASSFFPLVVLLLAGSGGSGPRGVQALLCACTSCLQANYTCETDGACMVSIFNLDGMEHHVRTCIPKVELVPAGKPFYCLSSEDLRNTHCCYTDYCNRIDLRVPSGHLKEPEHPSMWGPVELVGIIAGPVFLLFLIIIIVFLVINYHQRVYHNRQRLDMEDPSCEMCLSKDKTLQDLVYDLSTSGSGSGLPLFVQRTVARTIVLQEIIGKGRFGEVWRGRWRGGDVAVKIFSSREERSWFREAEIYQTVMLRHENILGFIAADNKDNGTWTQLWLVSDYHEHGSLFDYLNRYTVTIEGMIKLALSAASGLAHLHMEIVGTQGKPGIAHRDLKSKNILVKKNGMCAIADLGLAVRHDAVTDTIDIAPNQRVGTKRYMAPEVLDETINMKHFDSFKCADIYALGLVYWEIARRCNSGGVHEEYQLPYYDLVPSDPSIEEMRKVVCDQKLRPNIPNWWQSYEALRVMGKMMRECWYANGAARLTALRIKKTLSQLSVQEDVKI
Assay: as above
Settings: compound 0.5 µM; ATP 10 µM

Compound | residual activity
O=c1c2ccccc2[nH]c(=S)n1CCN1CCC(=C(c2ccc(F)cc2)c2ccc(F)cc2)CC1 | 103%
O=C(c1ccccc1)c1ccc(N2CCOCC2)cc1O | 104%
c1ccc(-c2cnc(Nc3ccc(OCCN4CCCC4)cc3)s2)cc1 | 101%

Molecular target: NEK1 (human) (UniProt Q96PY6)
Assay: as above
Settings: compound 0.5 µM; ATP 10 µM

Compound | residual activity
O=c1c2ccccc2[nH]c(=S)n1CCN1CCC(=C(c2ccc(F)cc2)c2ccc(F)cc2)CC1 | 109%
O=C(c1ccccc1)c1ccc(N2CCOCC2)cc1O | 115%
c1ccc(-c2cnc(Nc3ccc(OCCN4CCCC4)cc3)s2)cc1 | 94.2%

Molecular target: AKT1 (human) (UniProt P31749)
Assay: as above
Settings: compound 0.5 µM; ATP 10 µM

Compound | residual activity
O=c1c2ccccc2[nH]c(=S)n1CCN1CCC(=C(c2ccc(F)cc2)c2ccc(F)cc2)CC1 | 98.3%
O=C(c1ccccc1)c1ccc(N2CCOCC2)cc1O | 102%
c1ccc(-c2cnc(Nc3ccc(OCCN4CCCC4)cc3)s2)cc1 | 101%

Molecular target: EPHB1 (human) (UniProt P54762)
Assay: as above
Settings: compound 0.5 µM; ATP 10 µM

Compound | residual activity
O=c1c2ccccc2[nH]c(=S)n1CCN1CCC(=C(c2ccc(F)cc2)c2ccc(F)cc2)CC1 | 100%
O=C(c1ccccc1)c1ccc(N2CCOCC2)cc1O | 104%
c1ccc(-c2cnc(Nc3ccc(OCCN4CCCC4)cc3)s2)cc1 | 95.4%

Molecular target: STK33 (human) (UniProt Q9BYT3)
Assay: as above
Settings: compound 0.5 µM; ATP 10 µM

Compound | residual activity
O=c1c2ccccc2[nH]c(=S)n1CCN1CCC(=C(c2ccc(F)cc2)c2ccc(F)cc2)CC1 | 106%
